The text below walks through data of PMC11443518, “Undescribed Amaryllidaceae Alkaloids from Zephyranthes citrina and Their Cytotoxicity” (Journal of Natural Products, 2024).

Like-named read-outs stand apart in the source and are kept apart here.

In test [1] the test system is A2780 (ovarian carcinoma). Description: WST-1 cell proliferation assay, cytotoxicity screening. The class given is cell-based. The settings on record: Homo sapiens, read-out: growth percent (GP) A2780. From the text: (§1) Selected human tumor and nontumor cell lines Jurkat (acute T-cell leukemia), MOLT-4 (acute lymphoblastic leukemia), A549 (lung carcinoma), HT-29 (colorectal adenocarcinoma), PANC-1 (pancreas epithelioid carcinoma), A2780 (ovarian carcinoma), HeLa (cervix adenocarcinoma), MCF-7 (breast adenocarcinoma), SAOS-2 (osteosarcoma) and MRC-5 (nontumor lung fibroblasts) were purchased from European Collection of Authenticated Cell Cultures (ECACC, Salisbury, UK) and cultured according to the provider’s culture method guidelines. […] The cells in low passage number (nontumor primary cell line MRC-5 was used for a maximum of 10 passages and cancer cell lines were used for a maximum of 20 passages) and in an exponential growth phase were used for this study.
(§2) Each cell line was seeded at a previously established optimal density (1 × 10^3 to 50 × 10^3 cells per well) in a 96-well plate (TPP, Trasadingen, Switzerland) and cells were allowed to settle overnight. During screening tests for cytotoxicity, cells were treated with alkaloids at a final concentration of 10 μM for 48 h. Doxorubicin (Sigma-Aldrich, St. Louis, USA), at a concentration of 1 μM, was used as a positive control. At the end of the culture period, the WST-1 proliferation assay (Roche, Basel, Switzerland) was performed according to the manufacturer’s protocol. The absorbance was determined using a Tecan Spark microplate reader (Tecan, Männedorf, Switzerland). Each value is the mean of three independent experiments and represents the percentage of the proliferation of control, nontreated cells (100%). The growth percent (GP) value as the mean of the proliferation decrease was calculated for each cell line and derivative tested.
A general note: Formazan colour is commonly taken as a measure of viable cells.

A further test relates to A549 (lung carcinoma). The test is described as above. Type of test: cell-based. The settings on record: Homo sapiens, read-out: growth percent (GP) A549.
Description: as §1, §2

Test [2] deals with HT-29 (colorectal adenocarcinoma). Described as above. Type of test: cell-based. The settings on record: Homo sapiens, read-out: growth percent (GP) HT-29.
Description: as §1, §2

The subject of test [3] is HeLa (cervix adenocarcinoma). The test is described as above. The class given is cell-based. The settings on record: Homo sapiens, 48 h, read-out: growth percent (GP) HeLa.
Description: as §1, §2

Test [4] has as its system Jurkat (acute T-cell leukemia). The test is described as above. The settings on record: Homo sapiens, 48 h, read-out: growth percent (GP) Jurkat. Type of test: cell-based.
Description: as §1, §2

Test [5] concerns MRC-5 (nontumor lung fibroblasts). Described as above. The class given is cell-based. The settings on record: Homo sapiens, read-out: growth percent (GP) MRC-5.
Description: as §1, §2

Test [6] has as its system PANC-1 (pancreas epithelioid carcinoma). Described as above. The class given is cell-based. The settings on record: Homo sapiens, read-out: growth percent (GP) PANC-1.
Description: as §1, §2

The subject of another test is SAOS-2 (osteosarcoma). The test is described as above. The class given is cell-based. The settings on record: Homo sapiens, read-out: growth percent (GP) SAOS-2.
Description: as §1, §2

The subject of test [7] is MCF-7 (breast adenocarcinoma). Described as above. Type of test: cell-based, human. The settings on record: for activity at 10 µM: Homo sapiens, read-out: growth percent (GP) MCF-7.
Description: as §1, §2

For test [8], the system named is MOLT-4 (acute lymphoblastic leukemia). The test is described as above. The class given is cell-based, human. The settings on record: for activity at 10 µM: Homo sapiens, read-out: growth percent (GP) MOLT-4.
Description: as §1, §2

The subject of test [9] is nine human tumor and one nontumor cell lines. Description: Cytotoxicity screening across the whole panel of cell lines. Type of test: cell-based. The settings on record: for activity at 10 µM: Homo sapiens, read-out: GP value across the tested cell lines.
Description: Concerning the cytotoxicity of alkaloids isolated from Z. citrina, initially, Prakash and Vedanayaki investigated the MeOH extract of the bulbs for its in vitro cytotoxic activity using the MTT assay against three human cancer cell lines from different tissue origins: cervical cancer (HeLa), breast cancer (MCF-7), and oral squamous carcinoma (SCC-9). […] In this context, and to assess potential negative effects on human cell cultures, compounds 1, and 3–27 were screened in our study for cytotoxicity using a 10 μM single-dose regimen. The results were compared with those using the clinically approved antineoplastic agent doxorubicin at 1 μM. The effect on cell growth was investigated on nine human tumor and one nontumor cell lines, namely Jurkat (acute T-cell leukemia), MOLT-4 (acute lymphoblastic leukemia), A549 (lung carcinoma), HT-29 (colorectal adenocarcinoma), PANC-1 (pancreas epithelioid carcinoma), A2780 (ovarian carcinoma), HeLa (cervix adenocarcinoma), MCF-7 (breast adenocarcinoma), SAOS-2 (osteosarcoma) and MRC-5 (nontumor lung fibroblasts). […] No toxicity is valuable information, especially for compound 18, as it is a potent inhibitor of hAChE and hBChE.[27]
Selected human tumor and nontumor cell lines Jurkat (acute T-cell leukemia), MOLT-4 (acute lymphoblastic leukemia), A549 (lung carcinoma), HT-29 (colorectal adenocarcinoma), PANC-1 (pancreas epithelioid carcinoma), A2780 (ovarian carcinoma), HeLa (cervix adenocarcinoma), MCF-7 (breast adenocarcinoma), SAOS-2 (osteosarcoma) and MRC-5 (nontumor lung fibroblasts) were purchased from European Collection of Authenticated Cell Cultures (ECACC, Salisbury, UK) and cultured according to the provider’s culture method guidelines. All cell lines were maintained at 37 °C in a humidified 5% carbon dioxide and 95% air incubator. The cells in low passage number (nontumor primary cell line MRC-5 was used for a maximum of 10 passages and cancer cell lines were used for a maximum of 20 passages) and in an exponential growth phase were used for this study.
as §2

Setting [10] is: 10 μM single dose, 48-h interval, all tested cell lines.
Where [11] appears, read: c = 10 μM, 48 h, % of proliferation of nontreated control.
Where [12] appears, read: c = 10 μM, % of proliferation of nontreated control.

Consider `COc1cc2c(c(O)c1OC)[C@@]13CC[C@H](OC)C[C@@H]1N(CC3)C2O` (stereo partly drawn) [Compound 10, zephyranine F], for which the activity at 10 µM came out at 113% in [1] (A2780, 48 h); 81% in the test on A549 (lung carcinoma) (A549, 48 h); 88% in test [2] (HT-29, 48 h); 82% in test [3]; 89% in test [4]; 97% in test [5] (MRC5, 48 h). Further, the activity at 10 µM in test [6] (PANC-1, 48 h) was 77%; with SAOS-2 (osteosarcoma) (SAOS-2, 48 h), 73%; in test [7] (MCF7, 48 h) it was 99%; in [8] (MOLT-4, 48 h) it was 78%; in test [9] (48 h), > 50%.

Consider `COc1cc2c(cc1OC)[C@@]13CC[C@@H](O)C[C@@H]1N(CC3)C2` [Compound 11], for which the activity at 10 µM is 107% in test [1] (A2780, 48 h); 88% in the test on A549 (lung carcinoma) (A549, 48 h); 97% in [2] (HT-29, 48 h); 98% in test [3]; 99% in [4]; 104% in [5] (MRC5, 48 h). The activity at 10 µM in test [6] (PANC-1, 48 h) is 100%; in the test on SAOS-2 (osteosarcoma) (SAOS-2, 48 h), 97%; in test [7] (MCF7, 48 h) it was 104%; in test [8] (MOLT-4, 48 h) it was 95%; in test [9] (48 h) it was > 50%.

For `O[C@@H]1C=C[C@]23CCN(Cc4cc5c(cc42)OCO5)[C@H]3C1` [Compound 14], the activity at 10 µM in [1] (A2780, 48 h) was determined as 98%; with A549 (lung carcinoma) (A549, 48 h), 80%; in test [2] (HT-29, 48 h), 84%; in [3], 100%; in [4], 91%; in test [5] (MRC5, 48 h) it was 83%. For the same molecule, the activity at 10 µM in test [6] (PANC-1, 48 h) is 84%; in the test on SAOS-2 (osteosarcoma) (SAOS-2, 48 h) it was 79%; in test [7] (MCF7, 48 h) it was 79%; in test [8] (MOLT-4, 48 h) it was 92%; in test [9] (48 h) it was > 50%.

Turning to `COc1cc2c(cc1OC)[C@@]13C=CC(O)C[C@@H]1N(CC3)C2` (stereo partly drawn) [Compound 15, maritidine], the activity at 10 µM in test [1] (A2780, 48 h) was 94%; in the test on A549 (lung carcinoma) (A549, 48 h), 95%; in [2] (HT-29, 48 h) it was 93%; in test [3] it was 101%; in [4] it was 104%; in [5] (MRC5, 48 h), 104%. In addition, the activity at 10 µM is 91% in test [6] (PANC-1, 48 h); 94% with SAOS-2 (osteosarcoma) (SAOS-2, 48 h); 98% in [7] (MCF7, 48 h); 100% in [8] (MOLT-4, 48 h); > 50% in [9] (48 h). In test [9] (setting [10]), the “GP value across the tested cell lines” value was “lack of inhibitory activity”.

As to `COc1cc2c(cc1O)CN1CC[C@@]23C=CC(O)C[C@H]13` (stereo partly drawn) [Compound 16], the activity at 10 µM was determined as 101% in test [1] (A2780, 48 h); 106% with A549 (lung carcinoma) (A549, 48 h); 103% in test [2] (HT-29, 48 h); 114% in [3]; 102% in [4]; 97% in test [5] (MRC5, 48 h). In addition, the activity at 10 µM in test [6] (PANC-1, 48 h) is 101%; in the test with SAOS-2 (osteosarcoma) (SAOS-2, 48 h), 98%; in [7] (MCF7, 48 h), 105%; in test [8] (MOLT-4, 48 h) it was 110%; in [9] (48 h), > 50%.

As to `COC1C=C[C@@]23CCN(Cc4cc5c(cc42)OCO5)[C@@H]3C1` (stereo partly drawn) [Compound 17], the activity at 10 µM is 55% in test [1] (A2780, 48 h); 60% with A549 (lung carcinoma) (A549, 48 h); 71% in test [2] (HT-29, 48 h); 75% in [3]; 52% in test [4]; 82% in [5] (MRC5, 48 h). Moreover, the activity at 10 µM in test [6] (PANC-1, 48 h) is 77%; with SAOS-2 (osteosarcoma) (SAOS-2, 48 h), 76%; in test [7] (MCF7, 48 h), 49%; in [8] (MOLT-4, 48 h) it was 32%; in test [9] (48 h), > 50%. In addition, the “growth percent (GP) MCF-7” value in test [7] (setting [11]) is on record as “slight inhibition of growth”. Moreover, the “growth percent (GP) MOLT-4” value in [8] (setting [11]) is given as “slight inhibition of growth”.

With `COc1cc(-c2cccc3c2N(C)CC3)c(CN2CC[C@@]34C=C[C@H](O)C[C@@H]3Oc3c(OC)ccc(c34)C2)c(OC)c1OC` [Compound 18, narcielline], the activity at 10 µM in [1] (A2780, 48 h) worked out at 88%; in the test with A549 (lung carcinoma) (A549, 48 h), 110%; in test [2] (HT-29, 48 h) it was 106%; in test [3] it was 90%; in test [4], 103%; in [5] (MRC5, 48 h) it was 111%. Further, the activity at 10 µM is 111% in [6] (PANC-1, 48 h); 106% in the test on SAOS-2 (osteosarcoma) (SAOS-2, 48 h); 115% in [7] (MCF7, 48 h); 95% in test [8] (MOLT-4, 48 h); > 50% in [9] (48 h).

For the molecule `COc1cc2c(c(OC)c1OC)[C@@H](O)O[C@@H]1CC=C3CCN(C)[C@H]3[C@H]21` [Compound 21], the activity at 10 µM in [1] (A2780, c = 10 μM, 48 h, % of proliferation of nontreated control) worked out at 95%; with A549 (lung carcinoma) (A549, c = 10 μM, 48 h, % of proliferation of nontreated control), 101%; in test [2] (HT-29, c = 10 μM, 48 h, % of proliferation of nontreated control), 83%; in test [3] (setting [12]) it was 112%; in [4] (setting [12]), 91%; in test [5] (MRC5, c = 10 μM, 48 h, % of proliferation of nontreated control), 101%. For the same molecule, the activity at 10 µM in [6] (PANC-1, c = 10 μM, 48 h, % of proliferation of nontreated control) is 90%; in the test with SAOS-2 (osteosarcoma) (SAOS-2, c = 10 μM, 48 h, % of proliferation of nontreated control) it was 105%; in [7] (MCF7, c = 10 μM, 48 h, % of proliferation of nontreated control) it was 92%; in [8] (MOLT-4, c = 10 μM, 48 h, % of proliferation of nontreated control), 93%; in test [9] (setting [10]), > 50%.

Take `COc1cc2c(cc1O)C(=O)O[C@@H]1CC=C3CCN(C)[C@H]3[C@H]21` [Compound 22]: the activity at 10 µM in test [1] (A2780, 48 h) turned out to be 94%; in the test with A549 (lung carcinoma) (A549, 48 h) it was 109%; in [2] (HT-29, 48 h), 106%; in test [3] it was 96%; in [4], 100%; in test [5] (MRC5, 48 h), 93%. Besides, the activity at 10 µM in [6] (PANC-1, 48 h) is 92%; in the test on SAOS-2 (osteosarcoma) (SAOS-2, 48 h), 103%; in [7] (MCF7, 48 h), 102%; in test [8] (MOLT-4, 48 h) it was 100%; in [9] (48 h), > 50%.
